Patent US20250340592A1, “MAMMALIAN MILK-DERIVED PEPTIDES WITH ANTIMICROBIAL ACTIVITY” (MATRUBIALS INC., priority 2022, published 2025)
Where no end group is shown, it is not given here.

What was measured:
[1] = test system: L. iners; assay: direct kill assay (time-kill, FIG. 8); assay type: cell-based, Lactobacillus iners; settings: 0.375, 0.75, 1.5 mg/ml peptide, spotted 30 min post incubation
Protocol: (§1) For these peptides, 0.375 mg/ml concentration is sufficient to cause loss of viability of G. vaginalis and L. iners as compared to the absence of peptides. In FIG. 8A, M1-M8 peptides (SEQ ID NOS: 1, 6, 11, 16, 21, 26, 31, and 36) were tested using direct kill assays. Equal inoculums of G. vaginalis, L. iners and L. crispatus were incubated with either water (0.00), or 0.375 mg/ml, 0.75 mg/ml and 1.5 mg/ml. of peptides. Aliquots were spotted 30 minutes (min) post incubation on human blood tween (HBT) bilayer media, Tryptic soy agar (+5% sheep blood) or MRS (de Man, Rogosa, and Sharpe) agar plates respectively. For these peptides, 0.375 mg/ml concentration is sufficient to cause loss of viability of G. vaginalis and L. iners as compared to the absence of peptides.

[2] = test system: L. crispatus; assay: direct kill assay (time-kill, FIG. 8); assay type: cell-based, Lactobacillus crispatus; settings: 0.375, 0.75, 1.5 mg/ml peptide, spotted 30 min post incubation
Protocol: as §1

[3] = test system: G. vaginalis; assay: direct kill assay (time-kill, FIG. 8); assay type: cell-based, Gardnerella vaginalis; settings: 0.375, 0.75, 1.5 mg/ml peptide, spotted 30 min post incubation
Protocol: as §1

[4] = test system: A. baumannii; assay: direct kill assay of formulated peptide (FIG. 12D); assay type: cell-based, Acinetobacter baumannii; settings: 0.5% peptide in 20% propylene glycol and 2% hydroxypropyl cellulose, 0-60 min
Protocol: (§2) FIGS. 12A, 12B, 12C, and 12D depict the retention of antimicrobial activity of the indicated peptides M6 (SEQ ID NO: 26), M14 (SEQ ID NO:177), M16 (SEQ ID NO: 213) and M22 (SEQ ID NO: 291), with each peptide formulated in a composition with 20% propylene glycol and 2% hydroxypropyl cellulose (F is the formulation without a peptide), in the presence of G. vaginalis (FIG. 12A), L. iners (FIG. 12B), L. crispatus (FIG. 12C), or A. baumannii (FIG. 12D), from 0 minutes (min) to 60 minutes, as indicated, where the amount of growth is indicated as: 4 is full growth; 3 is too many colonies to count; 2 is countable colonies; and 1 is no growth.
In FIGS. 12A, 12B, 12C, and 12D, the impact of the formulation comprising 20% propylene glycol and 2% hydroxypropyl cellulose and 0.5% by weight of peptide M6 (SEQ ID NO: 26), M7 (SEQ ID NO: 31), M14 (SEQ ID NO: 177), M16 (SEQ ID NO: 213), or M22 (SEQ ID NO: 291) was tested in a direct kill assay as described herein.

[5] = test system: S. epidermidis; assay: colony-forming assay, CFU/ml over time (FIG. 10C); assay type: cell-based, Staphylococcus epidermidis; settings: peptide 0.5% (5 mg/ml), 0.8% NaCl, T=0 up to 60 minutes
Excerpt: (§3) FIGS. 10A, 10B, and 10C are graphs depicting bacterial viability in colony forming units (CFU) per milliliter (ml) over time (minutes) in the presence of select polypeptides: SEQ ID NO: 26 (M6); SEQ ID NO: 31 (M7); SEQ ID NO: 177 (M14); SEQ ID NO: 213 (M16); and SEQ ID NO: 291 (M22) in comparison to Indolicidin (IND) in the presence of P. aeruginosa (FIG. 10A), S. aureus MRSA (FIG. 10B), and S. epidermidis (FIG. 10C), respectively.
(§4) In FIGS. 10A, 10B, and 10C, quantitative colony-forming units/ml were assayed using the indicated peptides at a final concentration of 0.5% (5 mg/ml). For this colony-forming assay, peptides were incubated with indicated bacterial strains in 0.8% NaCl, and aliquots were removed starting time T=0, up to 60 minutes, followed by serial dilution and plating on Tryptic soy agar plates for overnight incubation, and enumeration of CFU/ml.

[6] = test system: P. aeruginosa; assay: colony-forming assay, CFU/ml over time (FIG. 10A); assay type: cell-based, Pseudomonas aeruginosa; settings: peptide 0.5% (5 mg/ml); for sensitivity of P. aeruginosa to peptide (CFU/ml): 0.8% NaCl, T=0 up to 60 minutes; for sensitivity of P. aeruginosa to peptide as compared to Indolicidin: after 20 minutes
Excerpt: as §3, §4

[7] = test system: S. aureus MRSA; assay: colony-forming assay, CFU/ml over time (FIG. 10B); assay type: cell-based, Staphylococcus aureus; settings: peptide 0.5% (5 mg/ml); for sensitivity of S. aureus to peptide (CFU/ml): 0.8% NaCl, T=0 up to 60 minutes; for sensitivity of S. aureus MRSA to peptide as compared to Indolicidin: after 20 minutes
Excerpt: as §3, §4

[8] = test system: S. aureus MRSA; assay: direct kill assay of formulated peptide (FIG. 13); assay type: cell-based, Staphylococcus aureus; settings: 0.5% by weight peptide in 20% propylene glycol and 2% hydroxypropyl cellulose
Protocol: as §2, with “FIG. 13 depicts” for “FIGS. 12A, 12B, 12C, and 12D depict”, “S. aureus MRSA,” for “G. vaginalis (FIG. 12A), L. iners (FIG. 12B), L. crispatus (FIG. 12C), or A. baumannii (FIG. 12D),”
In FIG. 13, the impact of the formulation comprising 20% propylene glycol and 2% hydroxypropyl cellulose and 0.5% by weight of peptide M6 (SEQ ID NO: 26), M7 (SEQ ID NO: 31), M14 (SEQ ID NO: 177), M16 (SEQ ID NO: 213), or M22 (SEQ ID NO: 291) was tested using a direct kill assay.

[9] = test system: A. baumannii; assay: growth of A. baumannii with peptide (FIG. 17); assay type: cell-based, Acinetobacter baumannii; settings: 250 μg/ml peptide, 0.01×MH broth
[10] = test system: MRSN panel P. aeruginosa strain NR-51553; assay type: cell-based, Pseudomonas aeruginosa; settings: 0.5% CMC and 0.01×MH broth
Excerpt: FIGS. 15A-15B show the growth of P. aeruginosa strain NR-51553 of FIG. 14A in a modified CLSI-based broth dilution assay, in the presence of peptide M16 (SEQ ID NO: 213) in 0.01×MH broth (FIG. 15A) and in the presence of peptide M16 in 0.01×MH broth and 0.5% carboxymethyl cellulose (CMC) (FIG. 15B), where the amount of growth is indicated as: 4 is full growth; 3 is too many colonies to count; 2 is countable colonies; and 1 is no growth.
FIG. 14A indicates sensitive(S) or resistant (R) relative to the listed antibiotic for eight of the more peptide-resistant […] strains of 100 MRSN panel strains (NR-51553, NR-51556, NR-51570, NR51597, NR-51520, NR-51546, NR-51574, and NR-51588). […] CLSI-based method described in CLSI document M07-A10, Vol. 35, No. 2, 2015 (ISBN 1-56238-988-2).

[11] = test system: EpiVaginal tissue model (Mattek); assay type: cell-based
Protocol: Table 2 below show the results of peptides M6 (SEQ ID NO: 26) and M14 (SEQ ID NO: 177) were assayed for their impact on vaginal irritation using the Epi Vaginal model to determine the exposure time to decrease the tissue viability to 50% (ET50) in EpiVaginal™ tissue model (Mattek). In brief, after exposure to the M6 and M14 peptides at 20 mg/ml final concentration for various times, toxicity was determined by measuring the relative conversion of MTT (3-(4,5-dimethylthiazol-2-yl)-2,5-dephenyltetrazolium bromide) in the vaginal tissue samples treated with peptide compared to tissues treated with a solvent negative control. Positive control was Triton-X-100 at 1% final concentration.

[12] = test system: P. aeruginosa; assay: time-kill assays (FIG. 9); assay type: cell-based, Pseudomonas aeruginosa; settings: as compared to M1-M5
Protocol: FIG. 9. depicts the antibiotic activity (in concentration of polypeptide at 0.375 mg/ml (****), 0.75 mg/ml (***), 1.5 mg/ml (**), or 3 mg/ml (*), as indicated) for each of polypeptides (SEQ ID NO: 1 (M1); SEQ ID NO: 6 (M2); SEQ ID NO: 11 (M3); SEQ ID NO: 16 (M4); SEQ ID NO: 21 (M5); SEQ ID NO: 26 (M6); SEQ ID NO: 31 (M7); SEQ ID NO: 36 (M8); SEQ ID NO: 41 (M9); SEQ ID NO: 76 (M10); SEQ ID NO: 106 (M11); SEQ ID NO: 141 (M12); SEQ ID NO: 142 (M13); SEQ ID NO: 177 (M14); SEQ ID NO:178 (M15); SEQ ID NO: 213 (M16); SEQ ID NO: 219 (M18), SEQ ID NO: 220 (M19); SEQ ID NO: 256 (M21); and SEQ ID NO: 291 (M22)) against P. aeruginosa and S. aureus MRSA, as indicated.
In FIG. 9, the bacterial pathogens P. aeruginosa and S. aureus—associated with skin, burn and wound infections were tested.

HQKMAKPWTQ (Synthetic: M4)
polypeptides target L. iners (time-kill images) [1]: target
polypeptides target L. crispatus (time-kill images) [2]: not L. crispatus
polypeptides target G. vaginalis (time-kill images) [3]: target

HKYAVRVVKK [M16, HKYAVRVVKK]
sensitivity of growth of A. baumannii, as compared to M22 [4]: more sensitive
sensitivity of S. epidermidis to peptide (CFU/ml) [5]: also sensitive
sensitivity of P. aeruginosa to peptide (CFU/ml) [6]: particularly sensitive
sensitivity of P. aeruginosa to peptide as compared to Indolicidin [6]: more sensitive
sensitivity of S. aureus to peptide (CFU/ml) [7]: also sensitive
sensitivity of S. aureus MRSA to peptide as compared to Indolicidin [7]: more sensitive
antibacterial activity against S. aureus MRSA in formulation [8]: retains antibacterial activity
efficacy on A. baumannii, M16 at 4 hours compared to M14 at 24 hours [9]: more efficacious
minimal bactericidal concentration (MBC) [10]: 15 µg/mL

GKRKPVTRAR (Synthetic: M2)
polypeptides target L. iners (time-kill images) [1]: target
polypeptides target L. crispatus (time-kill images) [2]: not L. crispatus
polypeptides target G. vaginalis (time-kill images) [3]: target

NTNRPRTKRA (Synthetic: M5)
polypeptides target L. iners (time-kill images) [1]: target
polypeptides target L. crispatus (time-kill images) [2]: not L. crispatus
polypeptides target G. vaginalis (time-kill images) [3]: target

QHQKAKKPWT (Synthetic: M3)
polypeptides target L. iners (time-kill images) [1]: target
polypeptides target L. crispatus (time-kill images) [2]: not L. crispatus
polypeptides target G. vaginalis (time-kill images) [3]: target

RGPPKSCRKRD [M14, RGPPKSCRKRD]
ET50 [11]: >24 h

KTPKAVNKCR (Synthetic: M8)
polypeptides target L. iners (time-kill images) [1]: target
polypeptides target L. crispatus (time-kill images) [2]: not L. crispatus
polypeptides target G. vaginalis (time-kill images) [3]: target
effectiveness in reducing the viability of P. aeruginosa [12]: more effective

HYYAVAVVK (Synthetic: M22)
antibacterial activity against S. aureus MRSA in formulation [8]: retains antibacterial activity
time from which viability of S. aureus MRSA is reduced [8]: 0 min

Triton-X-100 [reference compound]
ET50 [11]: 1.55 h

RQPRTHKYAVRVVKK (Synthetic: M15)
effectiveness in reducing the viability of P. aeruginosa [12]: more effective

RPRIPKASAK [M6, RPRIPKASAK]
ET50 [11]: >24 h

PKVERRPRPR (Synthetic: M1)
polypeptides target L. iners (time-kill images) [1]: target
polypeptides target L. crispatus (time-kill images) [2]: not L. crispatus
polypeptides target G. vaginalis (time-kill images) [3]: target

PVPQKVRPQR (Synthetic: M7)
sensitivity of S. epidermidis to peptide (CFU/ml) [5]: also sensitive
sensitivity of P. aeruginosa to peptide (CFU/ml) [6]: particularly sensitive
sensitivity of P. aeruginosa to peptide as compared to Indolicidin [6]: more sensitive
polypeptides target L. iners (time-kill images) [1]: target
sensitivity of S. aureus to peptide (CFU/ml) [7]: also sensitive
sensitivity of S. aureus MRSA to peptide as compared to Indolicidin [7]: more sensitive
antibacterial activity against S. aureus MRSA in formulation [8]: retains antibacterial activity
polypeptides target L. crispatus (time-kill images) [2]: not L. crispatus
polypeptides target G. vaginalis (time-kill images) [3]: target
effectiveness in reducing the viability of P. aeruginosa [12]: more effective
